The compounds below were run on genotype 1/2 chimeric cell culture derived HCV (HCVcc) (assay: Genotype 1/2 chimeric HCVcc assay (nano-luciferase, HCV replication)). Settings: Hepatitis C virus.
Assay type: cell-based
Method: Naïve Huh-7.5 target cells were plated at 2400 cells/well in 25 μL of culture media in 384-well plates (Greiner bio-one, μ clear black). After overnight incubation, compounds serially diluted in 10 μL of cell culture media were added. After 2 h compound treatment, cells were inoculated with 40 μL of genotype 1/2 chimeric cell culture derived HCV (HCVcc) which express structural proteins of an HCV genotype 1a isolate (TN accession number EF621489) and non-structural proteins of HCV genotype 2a (JFH-1) with nano-luciferase reporter. At 72 h post infection, nano-luciferase activity (Nano-Glo™, Promega) and cellular ATP (Cell titer-Glo™, Promega) were measured as a marker for HCV replication and cytotoxicity, respectively. EC50 and CC50 were calculated by non-linear regression analyzing using GraphPad Prism (GraphPad Software).

Row | SMILES | EC50
1 | CN(CCCN1CCC(N2CCCCC2)CC1)C(=O)c1ccc(Oc2ccccc2)cc1 [Compound 1047] | 1000 to 10000 nM
2 | O=C(NCCCN1CCC(N2CCCCC2)CC1)c1ccc(-c2cccc(OC(F)(F)F)c2)cc1 [Compound 1145] | 100 to 1000 nM
3 | O=C(NCCCN1CCC(N2CCCCC2)CC1)c1ccc2oc3ccccc3c2c1 [Compound 1074] | 1000 to 10000 nM
4 | O=C(NCCCN1CCC(N2CCCCC2)CC1)c1ccc(-c2ccc(O)cc2)cc1 [Compound 1127] | 1000 to 10000 nM
5 | O=C(NCCCN1CCC(N2CCCCC2)CC1)c1ccc(-c2ccc(C(F)(F)F)cc2)cc1Cl [Compound 1112] | 100 to 1000 nM
6 | O=C(NCCCN1CCC(N2CCCCC2)CC1)c1cc2ccccc2[nH]1 [Compound 1010] | 1000 to 10000 nM
7 | O=C(NCCCCN1CCC(N2CCCCC2)CC1)c1ccc(Oc2ccccc2)cc1 [Compound 1045] | 100 to 1000 nM
8 | O=C(NCCCN1CCC(c2ccncc2)CC1)c1ccc(Oc2ccccc2)cc1 [Compound 1055] | > 10000 nM
9 | O=C(CCCN1CCC(N2CCCCC2)CC1)Nc1ccc(Oc2ccc(C(F)(F)F)cc2)cc1 [Compound 1078] | 100 to 1000 nM
10 | N#Cc1ccc(Oc2ccc(C(=O)NCCCN3CCC(N4CCCCC4)CC3)cc2)cc1 [Compound 1035] | > 10000 nM
11 | O=C(NCCCN1CCC(N2CCCCC2)CC1)c1ccc(-c2cccc(CN3CCOCC3)c2)cc1 [Compound 1143] | 1000 to 10000 nM
12 | O=C(NCCCN1CCC(C2CCNCC2)CC1)c1ccc(Oc2ccccc2)cc1 [Compound 1072] | 1000 to 10000 nM
13 | Cc1cc(NC(=O)CCCN2CCC(N3CCCCC3)CC2)ccc1-c1ccc(C(F)(F)F)cc1 [Compound 1152] | < 100 nM
14 | O=C(NCCCN1CCC(N2CCCCC2)CC1)c1ccc(-c2ccccc2Cl)cc1 [Compound 1146] | 100 to 1000 nM
15 | O=C(NCCCN1CCC(N2CCCCC2)CC1)c1ccc(-c2ccc(C(F)(F)F)cc2)nc1 [Compound 1080] | 100 to 1000 nM
16 | O=C(NCCOCCN1CCC(N2CCCCC2)CC1)c1ccc(Oc2ccccc2)cc1 [Compound 1077] | 1000 to 10000 nM
17 | CC(=O)Nc1ccc(-c2ccc(C(=O)NCCCN3CCC(N4CCCCC4)CC3)cc2)cc1 [Compound 1140] | > 10000 nM
18 | COc1ccc(-c2ccc(S(=O)(=O)NCCCN3CCC(N4CCCCC4)CC3)cc2)cc1 [Compound 1097] | 100 to 1000 nM
19 | O=C(CCCN1CCC(N2CCCCC2)CC1)Nc1ccc(Oc2ccccc2)cc1 [Compound 1052] | 100 to 1000 nM
20 | O=C(NCCCN1CCC(N2CCCCC2)CC1)c1ccc(Cc2ccccc2)cc1 [Compound 1012] | 100 to 1000 nM
21 | O=C(NCCCN1CCC(N2CCCCC2)CC1)c1ccc(-c2ccc(C(F)(F)F)cc2)cn1 [Compound 1102] | 100 to 1000 nM
22 | O=C(c1ccc(Oc2ccccc2)cc1)N1CCC(C(=O)N2CCC(N3CCCCC3)CC2)C1 (stereo not shown) [Compound 1054] | > 10000 nM
23 | O=C(Nc1cccc(CN2CCC(N3CCCCC3)CC2)c1)c1ccc(Oc2ccccc2)cc1 [Compound 1075] | 100 to 1000 nM
24 | O=C(NCCCN1CCCC1)c1ccc(C2CCCCC2)cc1 [Compound 1006] | 1000 to 10000 nM
25 | O=C(NCCCN1CCC(N2CCCCC2)CC1)c1ccc(-c2ccc(F)cc2Cl)cc1 [Compound 1132] | 100 to 1000 nM

Same assay, conditions: Hepatitis C virus, Huh7.5, 72 h

Row | SMILES | EC50
26 | CC(C)(C)OC(=O)c1c(NC(=O)NCc2c(C3CC3)sc3c2CCNC3)sc2c1CCCC2 [Compound 285] | < 100 nM
27 | CC(C)(C)OC(=O)c1c(NC(=O)NCc2c(-c3ccsc3)sc3c2CCNC3)sc2c1CCCC2 [Compound 203] | < 100 nM
28 | CCOC(=O)c1c(NC(=O)NCc2c(Br)sc3c2CCNC3)sc2c1C(C)CCC2 (stereo not shown) [Compound 164] | < 100 nM
29 | CCNC(=O)c1c(NC(=O)NCc2c(-n3cccc3)sc3c2CCN(CC)C3)sc2c1CCCC2 [Compound 36] | < 100 nM
30 | CCN1CCc2c(sc(-n3cccc3)c2CNC(=O)Nc2sc3c(c2C(=O)OC(C)(C)C)CCOC3)C1 [Compound 237] | < 100 nM
31 | CCc1sc2c(c1CNC(=O)Nc1sc(C)c(C)c1C(=O)OC(C)(C)C)CCNC2 [Compound 288] | < 100 nM
32 | CC1CCCc2sc(NC(=O)NCc3c(Br)sc4c3CCNC4)c(C(=O)OC(C)(C)C)c21 (stereo not shown) [Compound 290] | < 100 nM
33 | C=CCCOC(=O)c1c(NC(=O)NCc2c(-n3cccc3)sc3c2CCNC3)sc2c1CCCC2 [Compound 276] | < 100 nM
34 | CCN1CCc2c(sc(C(F)(F)F)c2CNC(=O)Nc2sc3c(c2C(=O)OC(C)(C)C)CCC3)C1 [Compound 254] | < 100 nM
35 | CCOC(=O)c1c(NC(=O)NCc2c(-n3cccc3)sc3c2CCN(Cc2ccccc2)C3)sc2c1CCCC2 [Compound 7] | < 100 nM
36 | CN1CCc2c(sc(C(F)(F)F)c2CNC(=O)Nc2sc3c(c2C(=O)OC(C)(C)C)CCC3)C1 [Compound 278] | < 100 nM
37 | CCOC(=O)c1c(NC(=O)NCc2c(C(F)(F)F)sc3c2CCN(C)C3)sc2c1CCCC2 [Compound 197] | < 100 nM
38 | CCc1sc2c(c1CNC(=O)Nc1sc3c(c1C(=O)OC(C)(C)C)CCC(C)C3)CCNC2 (stereo not shown) [Compound 289] | < 100 nM
39 | CCOC(=O)c1cc(-c2ccccc2)sc1NC(=O)NCc1c(-n2cccc2)sc2c1CCN(CC)C2 [Compound 40] | 100 to 1000 nM
40 | CCOC(=O)c1c(NC(=O)NCc2c(-n3cccc3)sc3c2CCN(CC)C3)sc2c1CCN(C(C)=O)C2 [Compound 47] | < 100 nM
41 | CCN1CCc2c(sc(-n3cccc3)c2CNC(=O)Nc2sc(C)c(C)c2C(=O)OC(C)C)C1 [Compound 195] | < 100 nM
42 | Cc1sc(NC(=O)NCc2c(-c3cccc(F)c3)sc3c2CCN(CCN(C)C)C3)c(C(=O)OC(C)(C)C)c1C [Compound 366] | < 100 nM
43 | CN1CCc2c(sc(Br)c2CNC(=O)Nc2sc3c(c2C(=O)OC(C)(C)C)CCC3)C1 [Compound 299] | < 100 nM
44 | C=CCCOC(=O)c1c(NC(=O)NCc2c(C(F)(F)F)sc3c2CCNC3)sc2c1CCCC2 [Compound 275] | < 100 nM
45 | CCOC(=O)c1c(NC(=O)NCc2c(-c3ccccc3)sc3c2CCNC3)sc2c1CCCC2 [Compound 62] | 100 to 1000 nM
46 | CCOC(=O)c1c(NC(=O)NCc2c(Cl)sc3c2CCNC3)sc2c1CCCC2 [Compound 97] | 100 to 1000 nM
47 | CC(C)N1CCc2c(sc(-n3cccc3)c2CNC(=O)Nc2sc3c(c2C(=O)OC(C)(C)C)CCCC3)C1 [Compound 98] | < 100 nM
48 | CCN1CCc2c(sc(-n3cccc3)c2CNC(=O)Nc2sc3c(c2C(=O)NCCCOC)CCCC3)C1 [Compound 79] | 100 to 1000 nM
49 | COC(=O)c1c(NC(=O)NCc2c(Br)sc3c2CC[N+](C)(C)C3)sc2c1CCCC2 [Compound 176] | < 100 nM

Row | SMILES | EC50
50 | CC(C)(C)OC(=O)c1c(NC(=O)NCc2c(-c3ccc(F)cc3Cl)sc3c2CCNC3)sc2c1CCCC2 [Compound 286] | 100 to 1000 nM
51 | Cc1sc(NC(=O)NCc2c(C(F)(F)F)sc3c2CCNC3)c(C(=O)OC(C)(C)C)c1C [Compound 137] | < 100 nM
52 | CC(C)(C)OC(=O)c1c(NC(=O)NCc2c(-n3cccc3)sc3c2CCNC3)sc2c1CCCCC2 [Compound 302] | < 100 nM
53 | CN1CCN(c2sc3c(c2CNC(=O)Nc2sc4c(c2C(=O)OC(C)(C)C)CCCC4)CCNC3)CC1 [Compound 144] | 100 to 1000 nM
54 | CCOC(=O)c1c(NC(=O)C(=O)NCc2c(-n3cccc3)sc3c2CCN(CC)C3)sc2c1CCCC2 [Compound 78] | < 100 nM
55 | Cc1cc(C(=O)OC(C)(C)C)c(NC(=O)NCc2c(C(F)(F)F)sc3c2CCNC3)s1 [Compound 347] | < 100 nM
56 | CN(C)c1cccc(-c2sc3c(c2CNC(=O)Nc2sc4c(c2C(=O)OC(C)(C)C)CCCC4)CCNC3)c1 [Compound 230] | 1000 to 10000 nM
57 | Cc1sc(NC(=O)NCc2c(-n3cccc3)sc3c2CCN(C)C3)c(C(=O)OC(C)C)c1C [Compound 196] | < 100 nM
58 | CC(C)(C)OC(=O)c1c(NC(=O)NCc2c(-c3ccncc3)sc3c2CCNC3)sc2c1CCCC2 [Compound 145] | < 100 nM
59 | CN1CCc2c(sc(Br)c2CNC(=O)Nc2sc3c(c2C(=O)OC(C)(C)C)CCCC3)C1 [Compound 185] | < 100 nM
60 | O=C(NCc1c(C(F)(F)F)sc2c1CCNC2)Nc1sc2c(c1C(=O)OC1CCOC1)CCOC2 (stereo not shown) [Compound 336] | < 100 nM
61 | CC(C)OC(=O)c1c(NC(=O)NCc2c(-n3cccc3)sc3c2CCNC3)sc2c1CCCC2 [Compound 141] | < 100 nM
62 | CCOC(=O)c1c(NC(=O)NCc2c(-n3cccc3)sc3c2CCN(Cc2ccc(OC)cc2)C3)sc2c1CCCC2 [Compound 18] | < 100 nM
63 | CCN1CCc2c(sc(-n3cccc3)c2CNC(=O)Nc2cccc(Cl)c2)C1 [Compound 9] | > 10000 nM
64 | CC(C)(C)OC(=O)c1c(NC(=O)NCc2c(-c3ccccc3F)sc3c2CCNC3)sc2c1CCCC2 [Compound 227] | 100 to 1000 nM
65 | CCOC(=O)c1c(NC(=O)NCc2csc3c2CCCC3)sc2c1CCCC2 [Compound 35] | < 100 nM
66 | CC(C)(C)OC(=O)c1c(NC(=O)NCc2c(-n3cccc3)sc3c2CCN(CC(F)(F)F)C3)sc2c1CCCC2 [Compound 240] | < 100 nM
67 | CCN1CCc2c(sc(-n3cccc3)c2CNC(=O)Nc2sc3c(c2C(=O)NN2CCN(C)CC2)CCCC3)C1 [Compound 253] | 100 to 1000 nM
68 | CC1CCc2sc(NC(=O)NCc3c(-n4cccc4)sc4c3CCN(C)C4)c(C(=O)OC(C)(C)C)c2C1 (stereo not shown) [Compound 231] | < 100 nM
69 | CCN1CCc2c(sc(-n3cccc3)c2CNC(=O)Nc2sc3c(c2C(=O)NCCCCNC(=O)OC(C)(C)C)CCCC3)C1 [Compound 90] | 1000 to 10000 nM
70 | Cc1nnc(-c2c(NC(=O)NCc3c(-n4cccc4)sc4c3CCNC4)sc(C)c2C)o1 [Compound 72] | 100 to 1000 nM
71 | CC(C)(C)OC(=O)c1c(NC(=O)NCc2c(-c3ccccc3C(F)(F)F)sc3c2CCNC3)sc2c1CCCC2 [Compound 161] | 100 to 1000 nM
72 | CCN1CCc2c(sc(-n3cccc3)c2CNC(=O)Nc2nccs2)C1 [Compound 13] | > 10000 nM
73 | CCOC(=O)c1c(N(C)C(=O)NCc2c(-n3cccc3)sc3c2CCN(CC)C3)sc2c1CCCC2 [Compound 55] | 1000 to 10000 nM

Reference: patent US9809602B2, “Compounds for treating viral infections” (INSTITUT PASTEUR KOREA, priority 2014, dated 2017)
